# Data: ChEMBL document CHEMBL2401721, “BACE1 inhibitors: a head group scan on a series of amides” (Bioorg Med Chem Lett, 2013)
# Legend:
# [1] = Dissociation constant, pKa of the compound by capillary electrophoresis; assay type: physicochemical
# [2] = Drug uptake in wild-type C57Bl/6J mouse brain at 30 mg/kg, po after 4 hrs; assay type: ADME, organism-based; set-up: dose 30 mg/kg, route oral; conditions: read-out: Drug uptake
# [3] = Plasma concentration in wild-type C57Bl/6J mouse at 30 mg/kg, po after 4 hrs; assay type: ADME, organism-based; set-up: dose 30 mg/kg, route oral
# [4] = Ratio of drug level in brain to plasma in wild-type C57Bl/6J mouse at 30 mg/kg, po after 4 hrs; assay type: ADME, organism-based; set-up: dose 30 mg/kg, route oral; conditions: read-out: BPR
SMILES,pKa [1],concentration at 4 h [2] [ng/g],concentration at 4 h [3] [ng/mL],Kp at 4 h [4]
C[C@@]1(c2cccc(NC(=O)c3ccc(Cl)cn3)c2)COC(N)=N1,8.3,,,
CC1(c2cccc(NC(=O)c3ccccn3)c2)CSC(N)=N1 (centres undefined),8.3,,,
CN1C(=O)C(C)(c2cccc(NC(=O)c3ccc(Cl)cn3)c2)N=C1N (centres undefined),7.3,,,
C[C@]1(c2cccc(NC(=O)c3ccc(Cl)cn3)c2)N=C(N)c2ccccc21,9.7,,,

# Further lines, results first:
pKa [1],concentration at 4 h [2] [ng/g],concentration at 4 h [3] [ng/mL],Kp at 4 h [4],SMILES
8.3,,,,NC1=NC2(CCc3ccc(NC(=O)c4ccc(Cl)cn4)cc32)CO1 (centres undefined)
8.3,,,,NC1=NC2(CCc3ccc(NC(=O)c4ccc(Cl)cn4)cc32)CS1 (centres undefined)
> 11,< 13,< 3,,CN1CC[C@@](C)(c2cc(NC(=O)c3ccc(Cl)cn3)ccc2F)N=C1N
> 11,8,81,0.1,C[C@@]1(c2cc(NC(=O)c3ccc(Cl)cn3)ccc2F)CCC2(CC2)C(N)=N1
10.4,,,,C[C@@]1(c2cc(NC(=O)c3ccc(Cl)cn3)ccc2F)CCCOC(N)=N1
